The values that follow come from PMC8373196, “In silico, in vitro, and ex vivo studies of the toxicological and pharmacological properties of the flavonoid 5,7-dihydroxy-3,8,4'-trimethoxy” (Brazilian Journal of Medical and Biological Research, 2021).

In one data set the test system is oral mucosa cells. Briefly: Genotoxic effect on oral mucosa cells (ex vivo). It is filed as cell-based, human. The source says: (§1) The in vitro and ex vivo assays followed the guidelines provided in the Ethics Code of the World Medical Association and were approved by the Ethics Committee of the Patos University Center (protocol number: 3.621.284). For cell pellet preparation, blood samples (A, B, and O), and buccal mucosa were used from healthy young adults of both sexes between 18 and 40 years of age.
For evaluation of the genotoxic effect on oral mucosa cells, cell collection from the oral mucosa of the donors was performed with a cytobrush (smear brush collector) in the cheek area, and the material obtained was placed in 5 mL of 0.9% NaCl ([7]). Control samples were divided into two groups: cells treated with 0.0005% hydrogen peroxide (positive control) and cells not exposed to treatments (negative control). The cells were washed twice in saline solution and centrifuged for 10 min (900 g, 28°C). The cell pellets were re-suspended and kept in 5 mL of saline solution. After the third wash, they were exposed (ex vivo) to Pg-1 (50, 100, 500, and 1000 µg/mL) for 30 min; each test was performed in triplicate. The material was centrifuged for 5 min (900 g, 28°C) and the supernatant was removed before smear preparation. The cells were homogenized in a vortex and dried on the slides at room temperature for 15 min. Finally, they were fixed with a methanol:acetic acid mixture (3:1) for 15 min ([8]), and stained with 2% Giemsa. The cells were observed under an optical microscope and about 1000 cells were analyzed per slide. The data are reported as percentages representing the arithmetic average of three measurements ([9]). The cell toxicity was assessed by the presence of cellular indicators such as micronucleus, bi-nucleation, karyolysis, karyorrhexis, and macronucleus ([10]).

Data set [1] is described as follows: Hemolytic activity on human erythrocytes (in vitro). It is filed as cell-based. The following applies: both sexes; for hemolysis at 1 h, 1000 µg/mL: 0.5% red blood cell suspension, read-out: hemolysis rate.
Description: as §1
For hemolytic activity, red blood cell (RBC) samples were mixed with 0.9% NaCl in a proportion of 1:30 and centrifuged for 5 min (1400 g, 28°C) to obtain a white blood cell and platelet-free 0.5% suspension. The tested substance (Pg-1) was added to 2 mL RBC suspensions at the concentrations of 50, 100, 500, and 1000 µg/mL. The control samples were divided into two groups: negative control - RBC suspension (0% hemolysis) and a positive control - RBC suspension with 1% Triton X-100 (100% hemolysis). The material was incubated for 1 h at 22±2°C. Afterwards, the samples were centrifuged for 5 min (1400 g, 28°C) and hemolysis was quantified by spectrophotometry at 540 nm wavelength ([6]).

Read-outs that look alike come from different tables or passages of the source. Bounds are passed on as bounds.

With `COc1ccc(-c2oc3c(OC)c(O)cc(O)c3c(=O)c2OC)cc1` [Pg-1, 5,7-dihydroxy-3,8,4'-trimethoxy], in the data set on oral mucosa cells (50 µg/mL, 30 min), the “Binucleation (%)” value is 3.00±0.33 %, the “Karyolysis (%)” value is 2.88±0.11 %, the “Karyorrhexis (%)” value was 1.77±0.58 % and the “Macronucleus (%)” value turned out to be 6.55±0.58%. In addition, in the data set with oral mucosa cells (50 µg/mL, 30 min), the “Micronucleus (%)” value is 0.55±0.11 % and the “Normal (%)” value was 85.22±0.72 %. In the data set on oral mucosa cells (100 µg/mL, 30 min), the “Binucleation (%)” value came out at 1.77±0.58 %, the “Karyolysis (%)” value amounted to 2.44±0.44 %, the “Karyorrhexis (%)” value turned out to be 7.33±0.19% and the “Macronucleus (%)” value is listed as 3.55±0.94 %. Besides, in the data set with oral mucosa cells (100 µg/mL, 30 min), the “Micronucleus (%)” value amounted to 0.22±0.11 % and the “Normal (%)” value was determined as 84.67±1.07 %. In the data set with oral mucosa cells (500 µg/mL, 30 min), the “Binucleation (%)” value worked out at 2.33±0.50 %, the “Karyolysis (%)” value is listed as 2.55±0.80 %, the “Karyorrhexis (%)” value is given as 3.66±1.01 % and the “Macronucleus (%)” value was determined as 5.33±0.33%. Besides, in the data set on oral mucosa cells (500 µg/mL, 30 min), the “Micronucleus (%)” value is 0.22±0.11 % and the “Normal (%)” value was 85.89±1.78 %. In the data set with oral mucosa cells (1000 µg/mL, 30 min), the “Binucleation (%)” value worked out at 1.55±0.58 %, the “Karyolysis (%)” value is on record as 1.44±0.22 %, the “Karyorrhexis (%)” value is given as 1.44±0.11 % and the “Macronucleus (%)” value turned out to be 3.66±0.19 %. In the data set with oral mucosa cells (1000 µg/mL, 30 min), the “Micronucleus (%)” value was found to be 0.33±0.01 % and the “Normal (%)” value was 91.56±0.44 %. Also, the “toxicity in genotoxicity testing” value in the data set with oral mucosa cells (all concentrations (50-1000 µg/mL)) was “low toxicity”. Moreover, the hemolysis at 1 h in data set [1] (0.5% red blood cell suspension (blood types A, B and O), all concentrations tested (50-1000 µg/mL), read-out: rate of hemolysis (class)) is 0 to 40%. For the same compound, the hemolysis at 1 h, 1000 µg/mL in data set [1] (type A blood) is less than 5%. Also, the hemolysis at 1 h, 1000 µg/mL in data set [1] (type B blood) was less than 17%. Moreover, in data set [1] (type O blood), the hemolysis at 1 h, 1000 µg/mL is less than 9%.

For `OO` [Positive control, hydrogen peroxide, reference compound], in the data set on oral mucosa cells (0.0005% hydrogen peroxide), the “Binucleation (%)” value is given as 4.33±0.38%, the “Karyolysis (%)” value turned out to be 5.44±0.72%, the “Karyorrhexis (%)” value worked out at 5.11±0.67% and the “Macronucleus (%)” value is reported as 4.55±0.80%. Also, in the data set with oral mucosa cells (0.0005% hydrogen peroxide), the “Micronucleus (%)” value is listed as 4.00±0.88% and the “Normal (%)” value was determined as 76.56±3.08%. Moreover, the “Normal (%)” value with oral mucosa cells (0.0005% hydrogen peroxide, listed as positive control) is on record as less than 80%.
